Reference: patent US20030229108A1, “Barbituric acid analogs as therapeutic agents” (priority 2000, published 2003)
Where two headings read alike, the source gives them in different places.

Columns and labels:
[1] = molecular target: T1, interaction between HIF-1α and p300 (His-HIF-1α / GST-p300) (Homo sapiens, UniProt Q09472+Q16665); test: Primary assay: fluorescence-based (DELFIA) screening assay for inhibition of the HIF-1α/p300 interaction; format: binding
T1 construct: corresponding to the C-terminal 390 amino acids into vector pET28a; A plasmid containing the N-terminal 595 amino acids of human p300; made in house; host or cells: E. coli
Description: Candidate compounds were assessed for their ability to inhibit the interaction between HIF-1α and p300 using a high throughput fluorescence-based screening assay (DELFIA) as follows.
A plasmid expressing His-HIF-1α fusion protein was constructed by PCR, by amplifying and subcloning a fragment of the human HIF-1α cDNA (NCBI GenBank, accession number AH006957) corresponding to the C-terminal 390 amino acids into vector pET28a (Novagen®, Madison, Wis., USA). A plasmid containing the N-terminal 595 amino acids of human p300 (NCBI GenBank, accession number U01877) inserted into vector pGEX2T (Pharmacia®, Little Chalfont, Bucks, UK) was used for the production of GST-p300 fusion protein. The recombinant proteins were produced in E. coli. His-HIF-1α was purified using Ni-NTA agarose beads, according to manufacture's method (Qiagen®, Crawley, West Sussex, UK). GST-p300 was purified using Glutathione-sepharose beads (Amersham Pharmacia®, Little Chalfont, Bucks, UK) according to manufacturer's instructions. A titration of every batch of p300 was carried out in order to determine the optimum dilution of the protein to obtain at least a 10:1 ratio signal to noise in the binding assay.
The assay was performed in 96-well Polysorb plates (Nalge Nunc International®, Rochester, N.Y., USA) as follows. Plates were coated with His-HIF-1α at 50 ng/well in […] and incubated overnight at 4° C. The plates were then washed 3 times with deionized water and blocked with 100 μL/well 3% BSA in PBS for 3 hours at 4° C. After washing 3 times as before, GST-p300 was added at the appropriate dilution (1:800 in this screening) in binding buffer (50 mM HEPES pH 7.5, 50 mM NaCl, 0.1% BSA, 0.5 mM DTT). The reaction was incubated at room temperature for 1 hour. Plates were washed 3 times and anti-GST Europium-conjugated antibody (from Wallac®, Turku, Finland) was added at 50 ng/well in […]. After 45 minutes incubation, plates were washed 3 times as before. Then, 100 μL/well enhancement solution (from Wallac®, Catalog No. 1244-105) was added and allowed to react for 15 minutes at room temperature. Plates were read on a Victor 2 plate reader (from Wallac®).

[2] = tested on: VEGF promoter (VEGF-luciferase reporter) in Hepatoma 3B (hep3B) cells; test: VEGF-luciferase cell-based reporter assay, desferoxamine-induced, Hepatoma 3B (hep3B) cells; details: 15 h, read-out: Secondary Assay VEGF-luciferase IC50
Excerpt: This cell-based reporter assay involves the use of a luciferase reporter gene under the direct control of the VEGF promoter. Induction of HIF using desferoxamine leads to the transcription of luciferase through activation of the VEGF (Vascular Endothelial Growth Factor) promoter, which in turn leads to an increase in luciferase activity, which can be measured using most commercially available luciferase assay kits. Molecules that disrupt the HIF complex cause inhibition of HIF-dependent luciferase activation and lead to a reduction in luciferase activity. This assay allows the activity of the compounds to be assessed against the VEGF promoter, which is essential for VEGF production and subsequent angiogenesis.
Hepatoma 3B (hep3B) cells (ATCC Ref. No. HB-8064) were plated in 24-well plates at 2×10^4/well in 500 μL DMEM/10% FCS, and were transfected the following day using Fugene 6 (Roche Biochemicals®, Lewes, E. Sussex, UK). Transfection mixtures per well contained 6 μL 10% Fugene, 200 ng VEGF-luciferase reporter (rat VEGF promoter, NCBI GenBank, accession number U22373, Levy et al., 1995) and 2 ng TK-renilla (Promega®, Madison, Wis., USA) (for transfection efficiency control). Transfection was performed as recommended by manufacturer. Compounds were added the following day. After 1 hour incubation at 37° C., desferoxamine (Sigma®, Dorset, UK) was added at 100 μM to induce HIF activity. Duplicate wells without desferoxamine were run in parallel. Cells were harvested 15 hours later, and luciferase activity was measured using Dual Luciferase Assay System (Promega®, see also Technical Manual, Part #TM040, Instructions for Use of Products E1910 and E1960, revised May/1999).

[3] = tested on: VEGF; test: VEGF-ELISA (Quantikine sandwich immunoassay of VEGF in cell supernatant); format: cell-based; details: Homo sapiens, 17 h; read-out: Secondary Assay VEGF-ELISA IC50
Description: This assay employs the quantitative sandwich enzyme immunoassay technique. A monoclonal antibody (R&D Systems®, Abingdon, Oxon, UK) specific for VEGF was pre-coated onto a microplate. To this was added a sample containing VEGF. After washing, a second anti-VEGF antibody coupled to horseradish peroxidase was added. […] Typically, cells were plated at a concentration of 2.5×10^4 cells/well, and incubated with either 100 μM desferroxamine or at 0.1% O2 for 17 hours at 37° C. 200 μL of supernatant were removed and the VEGF quantitated using the Quantikine® ELISA kit from R&D Systems® (catalog # DVEOO) exactly according to the manufacturer's instructions. The assay is calibrated each time using recombinant human VEGF.

[4] = read-out: Primary Assay Inhibition IC50

T1 sequence (Q16665 437-826 limits assumed): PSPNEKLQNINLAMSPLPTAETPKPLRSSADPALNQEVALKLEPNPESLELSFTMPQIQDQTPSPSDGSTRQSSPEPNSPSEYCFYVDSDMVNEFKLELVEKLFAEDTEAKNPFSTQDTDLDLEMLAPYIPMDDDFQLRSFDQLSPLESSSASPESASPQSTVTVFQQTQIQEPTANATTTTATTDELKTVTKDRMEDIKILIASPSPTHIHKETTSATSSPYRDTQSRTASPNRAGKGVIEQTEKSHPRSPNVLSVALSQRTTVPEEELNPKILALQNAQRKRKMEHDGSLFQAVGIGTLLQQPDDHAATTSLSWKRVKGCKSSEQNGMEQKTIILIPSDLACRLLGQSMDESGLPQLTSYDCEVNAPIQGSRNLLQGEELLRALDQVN
T1 sequence (Q09472 1-595 limits assumed): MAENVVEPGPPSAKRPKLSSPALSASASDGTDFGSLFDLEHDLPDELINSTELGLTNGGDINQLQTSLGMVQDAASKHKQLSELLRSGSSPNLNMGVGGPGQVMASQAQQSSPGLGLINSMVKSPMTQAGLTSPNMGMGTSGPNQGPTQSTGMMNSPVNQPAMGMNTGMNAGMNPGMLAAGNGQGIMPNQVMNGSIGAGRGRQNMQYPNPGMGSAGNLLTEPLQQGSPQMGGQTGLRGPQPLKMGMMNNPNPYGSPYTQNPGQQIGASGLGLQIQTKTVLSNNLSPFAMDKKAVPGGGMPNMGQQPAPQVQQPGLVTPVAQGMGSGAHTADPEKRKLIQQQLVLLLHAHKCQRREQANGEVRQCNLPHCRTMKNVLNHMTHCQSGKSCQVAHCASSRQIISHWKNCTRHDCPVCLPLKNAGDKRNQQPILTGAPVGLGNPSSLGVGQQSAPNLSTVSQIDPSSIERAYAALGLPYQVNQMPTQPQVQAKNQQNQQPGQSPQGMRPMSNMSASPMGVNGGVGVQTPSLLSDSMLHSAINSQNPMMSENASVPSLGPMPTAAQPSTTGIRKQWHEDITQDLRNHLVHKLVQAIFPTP

| SMILES | IC50 [1, 4] [µM] | IC50 [2] [µM] | IC50 [1] [µM] | IC50 [3] [µM] | melting point |
| --- | --- | --- | --- | --- | --- |
| Cc1cc2nc3c(=O)n(CC(=O)O)c(=O)nc-3n(C)c2cc1C [PX088992] | 10 | 20 |  |  |  |
| Cc1cc2nc3c(=O)[nH]c(=O)nc-3n(CC(O)C(O)C(O)CO)c2cc1C (stereo not shown) [P2083033] |  | 20 |  |  |  |
| COc1cccc(N2C(=O)/C(=C/c3ccsc3)C(=O)NC2=S)c1 [PX106287] |  | 100 |  |  |  |
| CCOc1ccc(Br)cc1C=C1C(=O)NC(=S)NC1=O [PX089633] |  | 50 | 70 |  |  |
| O=C1NC(=S)NC(=O)C1=Cc1cn(Cc2ccccc2)c2ccccc12 [PX106341] |  | 57.5 | 49 | 20 |  |
| O=C1C(=Cc2ccc(Cl)cc2)C(=O)N(c2ccccc2)C(=S)N1c1ccccc1 [PX089645, 5-(4-Chloro-benzylidene)-1,3-diphenyl-2-thioxo-dihydro-pyrimidine-4,6-dione] |  |  | 80 | 200 |  |
| O=C1NC(=O)C(=Cc2ccc([N+](=O)[O-])s2)C(=O)N1 [PX074037] |  | 35 | 100 | 30 |  |
| Cc1cc(C)c(C=C2C(=O)NC(=S)NC2=O)[nH]1 [PX089624] |  | 12.5 | 45 | 6.2 |  |
| O=C1NC(=S)NC(=O)C1=Cc1ccc[nH]1 [PX089639, 5-(1H-pyrrol-2-ylmethylene)-2-thioxo-dihydro-pyrimidine-4,6-dione] |  | 25 | 20 | 50 | 280 °C (dec.) |
| CCN(CC)c1ccc(C=C2C(=O)NC(=O)NC2=O)cc1 [P2083675] |  | 50 | 35 | 75 |  |
| O=C1NC(=S)NC(=O)C1=Cc1ccc(Oc2ccccc2)cc1 [PX106021, 5-(4-Phenoxy-benzylidene)-2-thioxo-dihydro-pyrimidine-4,6-dione] |  | 100 |  | 80 |  |
| CCN1C(=O)/C(=C/C=C/c2ccco2)C(=O)NC1=S [PX106281] |  | 28 | 35 | 30 |  |
| Cc1cc(C=C2C(=O)NC(=S)NC2=O)c(C)n1-c1ccccc1 [PX106151] |  | 40 | 160 | 75 |  |
| CN(C)c1ccc(C=C2C(=O)NC(=S)NC2=O)cc1 [PX089631, 5-(4-dimethylamino-benzylidene)-2-thioxo-dihydro-pyrimidine-4,6-dione] |  | 16.3 | 25 | 27.5 |  |
| O=C1NC(=S)NC(=O)C1=Cc1ccc(-c2cc(C(F)(F)F)cc(C(F)(F)F)c2)o1 [PX075367] |  | 50 | 45 | 75 |  |
| CN(C)c1ccc(C=C2C(=O)N(c3ccccc3)C(=S)N(c3ccccc3)C2=O)cc1[N+](=O)[O-] [PX089626] |  | 75 | 40 |  |  |
| O=C1NC(=S)NC(=O)C1=Cc1ccc([N+](=O)[O-])s1 [PX074038, 5-(5-Nitro-thiophen-2-ylmethylene)-2-thioxo-dihydro-pyrimidine-4,6-dione] |  | 50 | 20 |  | 285 °C (dec.) |
| O=C1NC(=S)NC(=O)C1=C/C=C/c1ccccc1 [PX072015, 5-(3-Phenyl-allylidene)-2-thioxo-dihydro-pyrimidine-4,6-dione] |  | 18 |  |  |  |
| O=C1NC(=S)NC(=O)C1=Cc1ccc(/C=C/c2ccccc2)cc1 [px106027, 5-(4-Styryl-benzylidene)-2-thioxo-dihydro-pyrimidine-4,6-dione] |  | 75 |  |  |  |
| Cc1ccc(N2C(=O)/C(=C/c3ccoc3)C(=O)NC2=S)cc1 [PX106297] |  | 100 | 32 |  |  |

| SMILES | IC50 [1, 4] [µM] | IC50 [2] [µM] | IC50 [1] [µM] | IC50 [3] [µM] | melting point |
| --- | --- | --- | --- | --- | --- |
| O=C1NC(=S)NC(=O)C1=Cc1cc(Br)cs1 [PX089648, 5-(4-Bromo-thiophen-2-ylmethylene)-2-thioxo-dihydro-pyrimidine-4,6-dione] |  | 30 | 45 | 32.5 | 230 °C (dec.) |
| COc1ccc2cccc(/C=C3/C(=O)NC(=S)N(c4ccc(Br)cc4)C3=O)c2c1 [PX106265] |  | 32 | 50 |  |  |
| O=C1NC(=S)NC(=O)C1=Cc1ccc(-c2cc(Cl)ccc2Cl)o1 [PX106326] |  | 50 | 40 |  |  |
| O=C1NC(=S)NC(=O)C1=Cc1ccccc1OCc1ccccc1F [PX106343] |  | 100 | 49 |  |  |
| O=C1NC(=O)C(=Cc2cccc(O)c2)C(=O)N1 [PX089376] |  |  | 200 |  |  |
| O=C1NC(=S)NC(=O)C1=Cc1cccc2ccccc12 [PX089635, 5-(Naphthalen-1-ylmethylene)-2-thioxo-dihydro-pyrimidine-4,6-dione] |  |  | 80 |  | 280 °C (dec.) |
| CCN(CC)c1ccc(C=C2C(=O)N(c3ccccc3)C(=S)N(c3ccccc3)C2=O)cc1 [PX089647] |  |  | 100 |  |  |
| O=C1NC(=O)C(=Cc2ccccc2Cl)C(=O)N1 [PX083677] |  |  | 400 |  |  |
| Cn1c(=O)[nH]c(=O)c2c1nc(N)n2CC(O)COc1ccc(Cl)cc1 (stereo not shown) [PX084819] | 10 | 50 |  |  |  |
| O=C1NC(=O)C(=CC2CC=CCC2)C(=O)N1 (stereo not shown) [PX089369] |  |  | 225 |  |  |
| O=C1NC(=O)C(=Cc2ccc(Cl)cc2Cl)C(=O)N1 [PX089367] |  |  | 200 |  |  |
| O=C1NC(=S)NC(=O)C1=Cc1c2ccccc2cc2ccccc12 [PX106031, 5-(Anthracen-9-ylmethylene)-2-thioxo-dihydro-pyrimidine-4,6-dione] |  | 50 |  |  |  |
| Cc1cc(C)cc(-n2c(C)cc(C=C3C(=O)NC(=S)NC3=O)c2C)c1 [PX106155] |  | 27.5 | 10 | 45 |  |
| O=C1NC(=S)N(c2ccc(F)cc2)C(=O)/C1=C/c1ccc(-c2ccc(Cl)c(C(=O)O)c2)o1 [PX106244] |  |  | 40 |  |  |
| O=C1NC(=S)NC(=O)C1=Cc1ccco1 [PX083634, 5-(Furan-2-ylmethylene)-2-thioxo-dihydro-pyrimidine-4,6-dione] |  | 50 | 65 |  |  |
| CN(CCC#N)c1ccc(C=C2C(=O)NC(=S)NC2=O)cc1 [PX089643] |  | 87.5 | 55 | 100 |  |
| O=C1NC(=S)NC(=O)C1=Cc1c[nH]c2ccccc12 [PX075276, 5-(1H-Indol-3-ylmethylene)-2-thioxo-dihydro-pyrimidine-4,6-dione] |  | 10.8 | 30 | 18.8 |  |
| Cc1cc(C=C2C(=O)NC(=S)NC2=O)c(C)n1-c1sc2c(c1C#N)CCCC2 [PX106174] |  |  | 43 |  |  |
| COc1ccc(C=C2C(=O)NC(=O)NC2=O)cc1OC [PX072004] |  |  | 250 |  |  |
| COc1ccc(C=C2C(=O)NC(=O)NC2=O)c(Cl)c1OC [PX074728] |  |  | 125 |  |  |
